{"source": "patent US9725445B2", "about": "“Cycloalkyl nitrile pyrazolo pyridones as Janus kinase inhibitors” (Merck Sharp & Dohme Corp., priority 2013, dated 2017)", "molecular_target": "JAK1 (Homo sapiens (Human), UniProt P23458)", "sequence (P23458 875-1153)": "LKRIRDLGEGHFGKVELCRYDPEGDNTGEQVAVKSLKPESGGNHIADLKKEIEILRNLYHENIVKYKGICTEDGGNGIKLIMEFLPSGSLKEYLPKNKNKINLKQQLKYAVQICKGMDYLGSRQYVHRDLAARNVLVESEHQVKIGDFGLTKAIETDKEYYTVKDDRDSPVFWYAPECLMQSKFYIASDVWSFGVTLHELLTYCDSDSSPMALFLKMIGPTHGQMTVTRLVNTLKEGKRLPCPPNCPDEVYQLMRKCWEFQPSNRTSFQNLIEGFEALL", "test": "Jak biochemical HTRF assay, JAK1", "conditions": "HTRF biochemical assay, recombinant GST-tagged catalytic domain; read-out: JAK1 IC50"}
{"smiles": "CC(C)C(c1ccc(Nc2nn([C@H]3CCCC[C@@H]3C#N)c3cc[nH]c(=O)c23)cc1)n1nccn1", "note": "(single isomer, unassigned) [Example 15-30, (1S,2S)-2-[3-({4-[(1S or 1R)-2-methyl-1-(2H-1,2,3-triazol-2-yl)propyl]phenyl}amino)-4-oxo-4,5-dihydro-1H-pyrazolo[4,3-c]pyridin-1-yl]cyclohexanecarbonitrile]", "values": [{"measurement": "IC50", "result": 0.36, "unit": "nM"}]}
{"smiles": "N#C[C@H]1CCCC[C@@H]1n1nc(Nc2ccc3c(c2)CN(C2CCOCC2)S3(=O)=O)c2c(=O)[nH]ccc21", "note": "[Example 15-44, (1S,2S)-2-(3-{[1,1-dioxido-2-(tetrahydro-2H-pyran-4-yl)-2,3-dihydro-1,2-benzisothiazol-5-yl]amino}-4-oxo-4,5-dihydro-1H-pyrazolo[4,3-c]pyridin-1-yl)cyclohexanecarbonitrile]", "values": [{"measurement": "IC50", "result": 0.057, "unit": "nM"}]}
{"smiles": "CC(C)(C)OC(=O)C1CCC(N2Cc3cc(Nc4nn([C@H]5CCCC[C@@H]5C#N)c5cc[nH]c(=O)c45)ccc3C2=O)CC1", "note": "(single isomer, unassigned) [Example 3-134, (cis or trans)tert-butyl 4-(5-((1-((1S,2S)-2-cyanocyclohexyl)-4-oxo-4,5-dihydro-1H-pyrazolo[4,3-c]pyridin-3-yl)amino)-1-oxoisoindolin-2-yl)cyclohexanecarboxylate]", "values": [{"measurement": "IC50", "result": 0.16, "unit": "nM"}]}
{"smiles": "CC(c1ccc(Nc2nn([C@H]3CCCC[C@@H]3C#N)c3cc[nH]c(=O)c23)cc1)n1ccnn1", "note": "(single isomer, unassigned) [Example 15-42, (1S,2S)-2-[4-oxo-3-({4-[(1S or 1R)-1-(1H-1,2,3-triazol-1-yl)ethyl]phenyl}amino)-4,5-dihydro-1H-pyrazolo[4,3-c]pyridin-1-yl]cyclohexanecarbonitrile]", "values": [{"measurement": "IC50", "result": 0.15, "unit": "nM"}]}
{"smiles": "N#C[C@@H]1C[C@@H](O)CC[C@H]1n1nc(Nc2ccc(C(F)(F)F)cc2)c2c(=O)[nH]ccc21", "note": "[Example 3-89, (1R,2R,5S)-5-hydroxy-2-(4-oxo-3-((4-(trifluoromethyl)phenyl)amino)-4,5-dihydro-1H-pyrazolo[4,3-c]pyridin-1-yl)cyclohexanecarbonitrile]", "values": [{"measurement": "IC50", "result": 9.8, "unit": "nM"}]}
{"smiles": "CC(C)(C)[S@@+]([O-])N[C@@H](c1ccc(Nc2nn([C@H]3CCCC[C@@H]3C#N)c3cc[nH]c(=O)c23)cc1)C(F)(F)F", "note": "(stereo in doubt) [Example 3-55]", "values": [{"measurement": "IC50", "result": 0.52, "unit": "nM"}]}
{"smiles": "COCC(C)(C)CN1Cc2cc(Nc3nn([C@H]4CCCCC[C@@H]4C#N)c4cc[nH]c(=O)c34)ccc2S1(=O)=O", "note": "(single isomer, unassigned) [Example 15-49, (1S,2S or 1R,2R)-2-(3-{[2-(3-methoxy-2,2-dimethylpropyl)-1,1-dioxido-2,3-dihydro-1,2-benzisothiazol-5-yl]amino}-4-oxo-4,5-dihydro-1H-pyrazolo[4,3-c]pyridin-1-yl)cycloheptanecarbonitrile]", "values": [{"measurement": "IC50", "result": 5.1, "unit": "nM"}]}
{"smiles": "C[C@H](N[C@H]1CC[C@@H](n2nc(Nc3ccc(C(F)(F)F)cc3)c3c(=O)[nH]ccc32)[C@H](C#N)C1)C1CC1", "note": "[Example 5-13, (1R,2R,5S)-5-(((S)-1-cyclopropylethyl)amino)-2-(4-oxo-3-((4-(trifluoromethyl)phenyl)amino)-4,5-dihydro-1H-pyrazolo[4,3-c]pyridin-1-yl)cyclohexanecarbonitrile]", "values": [{"measurement": "IC50", "result": 97, "unit": "nM"}]}
{"smiles": "CC(C)(CCO)N1Cc2cc(Nc3nn([C@H]4CCCC[C@@H]4C#N)c4cc[nH]c(=O)c34)ccc2S1(=O)=O", "note": "[Example 3-81, (1S,2S)-2-(3-{[2-(3-hydroxy-1,1-dimethylpropyl)-1,1-dioxido-2,3-dihydro-1,2-benzisothiazol-5-yl]amino}-4-oxo-4,5-dihydro-1H-pyrazolo[4,3-c]pyridin-1-yl)cyclohexanecarbonitrile]", "values": [{"measurement": "IC50", "result": 0.055, "unit": "nM"}]}
{"smiles": "CC(C)(C)N1Cc2cc(Nc3nn([C@H]4CCCCC[C@H]4C#N)c4cc[nH]c(=O)c34)ccc2S1(=O)=O", "note": "(single isomer, unassigned) [Example 3-178, (1R,2S or 1S,2R)-2-{3-[(2-tert-butyl-1,1-dioxido-2,3-dihydro-1,2-benzisothiazol-5-yl)amino]-4-oxo-4,5-dihydro-1H-pyrazolo[4,3-c]pyridin-1-yl}cycloheptanecarbonitrile]", "values": [{"measurement": "IC50", "result": 0.84, "unit": "nM"}]}
